# Data from patent publication US20260248731A1, “NON-VIRAL DELIVERY OF SMALL MOLECULE THERAPEUTICS” (BATTELLE MEMORIAL INSTITUTE, priority 2022, published 2026).
# Key:
# RAW264.7 cells = test: Cytokine release from RAW264.7 cells, multiplex cytometric bead array; format: cell-based, murine; details: 24 hours after treatment
# Method: Talabostat mesylate (MedChemExpress; TLBST) was reconstituted to 10 mg/mL in deionized water and stored frozen. Prior to use, TLBST was thawed, incubated at 37° C. for 20 mins, and sonicated for 10 minutes. TLBST was serially diluted in pH 7.4, 40 mM Tris, 10 mM MgCl2 buffer to 5 mg/mL and 2.5 mg/mL. Free talabostat controls were prepared in triplicate by diluting and serially diluting the 10, 5, and 2.5 mg/mL TLBST stock in pH 7.4, 40 mM Tris-HCl, 10 mM MgCl2 buffer to generate free TLBST at 1.25, 0.625, and 0.3125 mg/mL. […]
# RAW264.7 cells were seeded at 100,000 cells per well of a 96-well plate. […] Twenty-four hours following stimulation, cell culture supernatants were harvested and stored frozen until quantification of lactate dehydrogenase (LDH) by colorimetric enzymatic activity assay, and interleukin 1β (IL-1β), interleukin 18 (IL-18), and interferon β (IFNβ) by multiplex cytometric bead array assay. Percentage LDH release was calculated relative to the maximum LDH released from a lysed cells control. […] MTT signal derived from stimulated cells was quantified by colorimetric enzymatic activity assay. Percentage viability was calculated relative to the MTT signal measured in an untreated cells control. […]
# [1] = system: macrophage-differentiated THP-1 cells; details: background statement; cited from earlier work
# murine cancer models = details: systemic administration; cited from earlier work
# [2] = system: macrophage-differentiated THP-1 cells; details: background statement; cited from earlier work; remark: listed apart in the source
substance,measurement,setting,value
Talabostat mesylate [Free TLBST],IFNβ in the supernatant,RAW264.7 cells,but not free TLBST is associated with IFNβ secretion
same,IL-1β release,[1],exhibit both cytotoxicity and IL-1β release
same,protection in murine cancer models,murine cancer models,potent T and NK cell-dependent protection
same,cytotoxicity,[2],exhibit both cytotoxicity and IL-1β release
